Data published in article PMC10031466, “The ROK kinase N-acetylglucosamine kinase uses a sequential random enzyme mechanism with successive conformational changes upon each substrate binding” (The Journal of Biological Chemistry, 2023).

Columns and labels:
[1] = molecular target: T1, N-acetylglucosamine kinase (PsNagK) (Plesiomonas shigelloides, UniProt R8APY9); test: crystal structure; isothermal differential scanning fluorimetry; format: binding
T1 construct: gene nagK; His-SUMO tagged P. shigelloides NagK (crystallization)
T1 sequence (R8APY9 1-303): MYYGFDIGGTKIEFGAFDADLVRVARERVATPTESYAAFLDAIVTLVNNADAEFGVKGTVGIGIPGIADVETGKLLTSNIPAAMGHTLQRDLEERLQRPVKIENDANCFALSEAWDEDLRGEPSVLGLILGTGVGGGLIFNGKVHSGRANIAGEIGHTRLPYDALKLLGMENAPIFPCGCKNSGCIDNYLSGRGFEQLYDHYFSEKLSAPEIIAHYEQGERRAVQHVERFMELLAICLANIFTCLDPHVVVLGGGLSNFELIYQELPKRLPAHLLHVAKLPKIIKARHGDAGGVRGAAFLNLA

[2] = molecular target: T1, N-acetylglucosamine kinase (PsNagK); test: crystal structures (binary 7PA1; ternary with GlcNAc 7P9P); isothermal differential scanning fluorimetry; format: binding

## CC(=O)N[C@@H]1[C@@H](O)[C@H](O)[C@@H](CO)O[C@@H]1O [GlcNAc, N-acetyl-D-glucosamine]
[1]
  Kd: 230 ± 20 µM

## Nc1ncnc2c1ncn2[C@@H]1O[C@H](COP(=O)(O)OP(=O)(O)NP(=O)(O)O)[C@@H](O)[C@H]1O [AMP-PNP]
[2]
  Kd: 2.2 ± 0.6 mM
